From patent US5958770A, “Glycoalkaloids” (priority 1990, dated 1999)
“Also recorded” adds a separate entry of the source. Read-outs that look alike come from different tables or passages of the source.

What was measured:
in vitro [1] = conditions: human, pha stimulated lymphocytes
Experimental: (§5) This was cultured for 48 hours and pulsed with tritiated thymidine for a further 24 hours. In the inhibition studies, the cell concentration was 8×10^5 /ml.
(§6) All cells were harvested by vacuum filtration by washing in 250 μl of each of phosphate buffered saline, 5% trichloroacetic acid, 1.0M NaCl and 95% ethanol and subjected to β-scintillatian counting. Similarly, peripheral human blood lymphocytes were isolated and cultured 2×10^5 lymphocytes in CO2 1640TCM 10% HIFCS. Lymphocytes were stimulated with 20 μg/ml PHA, Con A or PWM, and cultured for 48 hrs followed by a 24 hr pulse. […] Cell concentrations were 8×10^4 /well total volume 250 μl. The dpm of the experimental replicates were expressed as a percentage of the mean value of the controls, and the mean value of the experimental replicates calculated.

[2] = system: PHA stimulated lymphocytes; assay: Inhibition of tritiated thymidine uptake, PHA stimulated lymphocytes; conditions: PHA stimulated lymphocytes
Experimental: as §5, §6

in vitro [3] = conditions: human, con a stimulated lymphocytes
Experimental: as §5, §6

unstimulated lymphocytes = assay: Inhibition of tritiated thymidine uptake, unstimulated lymphocytes; conditions: unstimulated lymphocytes
Experimental: as §5, §6

[4] = system: Con A stimulated lymphocytes; assay: Inhibition of tritiated thymidine uptake, Con A stimulated lymphocytes; conditions: Con A stimulated lymphocytes
Experimental: as §5, §6

ovarian cancer cells [5] = assay: Inhibition of tritiated thymidine uptake, ovarian cancer cells
Experimental: (§1) The inhibition of cell replication by steroid alkaloids is determined by the inhibition of the incorporation of ^3 H thymidine into DNA. Using this technique, it should be possible to monitor any preferential inhibition of uptake of ^3 H thymidine by cancer cells.
(§2) Cells were maintained as monolayers in RPM1-1640 tissue culture media (Grant Island Biological Co) buffered with N-2-hydroxy-ethylpiperazine-N-2-ethanesulphonic acid pH 7.5 and supplemented with 10% heat inactivated fetal calf serum (FCS): (i) a human ovarian cancer cell line (C180-135), (ii) HeLa cells, (iii) human fibroblasts, and (iv) as a cell suspension of lymphoblastoid cells (EBV transformed lymphocytes). Monolayers were trypsinized to form a cell suspension. […] Cell concentration was adjusted to 2×10^5 cells/ml, and 2×10^4 cells were added in replicates of 10 to the wells (1×10^5 /ml well) of HA microtitre plates (Millipore Corp., USA). The cells were preincubated at 37.5° C. for 7 hours prior to the addition of 50 μl of the cytotoxic drug followed by the addition of 50 μl 5 uCi/ml of ^3 H thymidine, in the same tissue culture media 21 hours later. Incubation was continued for a total of 24 hours, which includes the pre-incubation time.
(§3) Appropriate DMSO cytotoxicity studies were also conducted. Solasodine glycosides were supplied as a mixture (BEC), and as separate components, solamargine, solasonine, a mixture of di- and mono-glycosides and the aglycone solasodine. All cytotoxic drugs were further diluted with HIFCS/TCM before testing. 5×10^4 ovarian cancer cells (200 μl/chamber of a chamber of microscope slide (Lab Tek Miles Scientific) were used. Controls received 50 μl HIFCS/TCM and experimental chambers 50 μl of solasodine glycosides (BEC) 1.5-3.8 μM/L after 7 hrs preincubation, and incubated for a further 3 hrs. Similarly, the cells were treated with the aglycone solasodine 19.4-96.8 μM/L. The cells were fixed and examined by the Papanicolaou method.

in vitro [6] = conditions: human, unstimulated lymphocytes
Experimental: as §5, §6

human spermatozoa = assay: Immobilization of spermatozoa; format: cell-based; conditions: for effect on spermatozoa (words): solamargine/eosin, FIG. 5
Experimental: In order to observe any immobilization of spermatozoa, sperm (10×10^6 /ml) (50 μl) were placed on a microscope slide separated from 50 μl of solamargine (1 mg/ml) by 5 μl of eosin. A cover slip was then placed over the slide. […] This is a standard method known in the art. It was noted that sperm was not present on the side of the slide where the drop of solasodine glycosides was placed.

[7] = system: ovarian cancer cells, HeLa cells, lymphoblastoid cells, fibroblasts; assay: Cytotoxicity / inhibition of tritiated thymidine uptake, cell types taken together
Experimental: as §1, §2, §3

ovarian cancer cells [8] = assay: Solamargine cytotoxicity in presence and absence of carbohydrates, ovarian cancer cells; format: cell-based, human; conditions: Homo sapiens, OvCa, solamargine 1.54 μM/L, read-out: Percentage Survival
Experimental: (§4) A mixture of solasodine glycosides (BEC), of which the active compound is solamargine and from which the aglycone solasodine is derived was prepared for use in cytotoxicity assays as determined by the uptake of tritiated thymidine. Inhibition studies were carried out with lactose, lactosyl-albumin, galactose or rhamnose (Sigma Chemical Co., USA). All experimental replicates were related to their own controls. Total volume of replicates was 250 μl (carbohydrates added in 50 μl tissue culture media+10% fetal calf serum), and the cell concentrations were 8×10^4 /ml.

lymphoblastoid cells = assay: Solamargine cytotoxicity in presence and absence of carbohydrates, lymphoblastoid cells; format: cell-based; conditions: Homo sapiens, Lymphoblastoid cell, LCL, solamargine 3.1 μM/L, read-out: Percentage Survival
Experimental: as §4

in vitro [9] = conditions: human, pwm stimulated lymphocytes
Experimental: as §5, §6

fibroblasts = assay: Solamargine cytotoxicity in presence and absence of carbohydrates, fibroblasts; format: cell-based, human; conditions: Homo sapiens, Fibroblast, Fb, solamargine 3.1 μM/L, read-out: Percentage Survival
Experimental: as §4

ovarian cancer cells [10] = assay: Morphological examination of ovarian cancer cells (Papanicolaou); format: cell-based, human; conditions: 17 hours; FIG. 4B
Experimental: Appropriate DMSO cytotoxicity studies were also conducted.
A human ovarian cancer cell line (C180-135) was grown as mono layers and trypsinized to form a cell suspension. The cells were adjusted to a concentration of 1×10^5 /ml (viability ≥95%) and 200 μl placed in each of the eight chambers of microscope chamber slides (Lab Tek, Miles Scientific). After 21 hours preincubation at 37.5° C., 50 μl of supplemented tissue culture media were added to the control chambers. To the other chambers were added 50 μl of solasodine glycosides (BEC) to give final concentrations of 3, 4.8, 6.7, 7.7, 9.6, 11.1 and 15.3 μM/L. Similarly, to a separate chamber slide was added the aglycone solasodine (19.4-96.8 μM/L). The slides were incubated at 37.5° C. for a further 3 hours, and the cells fixed in 95% V/V alcohol and stained by the Papanicolaou method. Two other chamber slides were prepared in a similar manner, but the solasodine glycosides and the aglycone were added at a final concentration of 0.77, 1.5, 2.3, 3.1 and 3.8 μM/L after 7 hours preincubation, and they incubated for a further 17 hours.

HeLa cells = assay: Solamargine cytotoxicity in presence and absence of carbohydrates, HeLa cells; format: cell-based, human; conditions: Homo sapiens, HeLa, solamargine 2.4 μM/L, read-out: Percentage Survival
Experimental: as §4

[11] = 1.1 μM/L galactose, *** p < 0.001
[12] = 1.1 μM/L lactose, *** p < 0.001

Question: For `C[C@@H]1CC[C@@]2(NC1)O[C@H]1C[C@H]3[C@@H]4CC=C5C[C@@H](O[C@@H]6O[C@H](CO)[C@@H](O[C@@H]7O[C@@H](C)[C@H](O)[C@@H](O)[C@H]7O)[C@H](O)[C@H]6O[C@@H]6O[C@@H](C)[C@H](O)[C@@H](O)[C@H]6O)CC[C@]5(C)[C@H]4CC[C@]3(C)[C@H]1[C@@H]2C` [Solamargine, solamargine], which viability at 11.5 µM (in vitro [1]) is on record?
Answer: Its viability at 11.5 µM is 93 ± 4.4%.

Question: And the “cytotoxicity (words)” value [2]?
Answer: The value was “absence of cytotoxicity”.

Question: And the viability at 11.5 µM (in vitro [3])?
Answer: Its viability at 11.5 µM is 79 ± 4%.

Question: And the “cytotoxicity (words)” value (unstimulated lymphocytes)?
Answer: The value was “limited effect; also recorded: limited cytotoxicity”.

Question: What about the “cytotoxicity (words)” value [4] of the same compound?
Answer: The value was “limited effect; also recorded: limited cytotoxicity”.

Question: What about the IC50 (ovarian cancer cells [5]; Homo sapiens, read-out: LD50 (dose to inhibit 50% tritiated thymidine uptake)) of the same compound?
Answer: Its IC50 is 1.55 µM.

Question: And the viability at 11.5 µM (ovarian cancer cells [5]; Homo sapiens, read-out: Percentage Cell Survival)?
Answer: The viability at 11.5 µM was 7 ± 0.8%.

Question: And the “LD50 of solamargine less than that of vinblastine, chlorambucil or cis-platinum” value (ovarian cancer cells [5]; ovarian cancer cells, fold lower)?
Answer: Its value is 6-40 times.

Question: What about the viability at 11.5 µM (in vitro [6]) of the same compound?
Answer: Its viability at 11.5 µM is 76 ± 9.6%.

Question: What about the “time to immobilization of sperm” value (human spermatozoa; solamargine 1 mg/ml) of the same compound?
Answer: The value was at most 15 s.

Question: What about the “effect on spermatozoa (words)” value (human spermatozoa) of the same compound?
Answer: The value was “inhibit human spermatozoal motility”.

Question: And the “effect on spermatozoa (words)” value (human spermatozoa; listed as solamargine)?
Answer: The value was “dead intact spermatozoa”.

Question: What about the “preferential cytotoxicity for cancer cells” value ([7]; cancer cells relative to other cell types) of the same compound?
Answer: Its value is “preferentially inhibits the uptake of tritiated thymidine by cancer cells”.

Question: What about the “LD50 for ovarian cancer cell line and HeLa cells less than that for lymphoblastoid cells and fibroblasts” value ([7]; fold lower) of the same compound?
Answer: The value was 1.5-3.3 times.

Question: And the viability at 1.54 µM (ovarian cancer cells [8]; 1.1 μM/L galactose, ** p = 0.001)?
Answer: The viability at 1.54 µM was 79%.

Question: And the viability at 1.54 µM (ovarian cancer cells [8]; 1.1 μM/L lactose, * p < 0.02 > 0.01)?
Answer: Its viability at 1.54 µM is 75%.

Question: And the viability at 1.54 µM (ovarian cancer cells [8]; 1.1 μM/L rhamnose)?
Answer: The viability at 1.54 µM was 67 ± 7.5%.

Question: And the viability at 1.54 µM (ovarian cancer cells [8]; no carbohydrate)?
Answer: The viability at 1.54 µM was 62 ± 7%.

Question: What about the viability at 3.1 µM (lymphoblastoid cells; [11]) of the same compound?
Answer: Its viability at 3.1 µM is 42%.

Question: What about the viability at 3.1 µM (lymphoblastoid cells; [12]) of the same compound?
Answer: The viability at 3.1 µM was 47%.

Question: What about the viability at 3.1 µM (lymphoblastoid cells; 1.1 μM/L rhamnose) of the same compound?
Answer: The viability at 3.1 µM was 36 ± 4.5%.

Question: What about the viability at 3.1 µM (lymphoblastoid cells; no carbohydrate) of the same compound?
Answer: The viability at 3.1 µM was 34 ± 3%.

Question: And the viability at 11.5 µM (in vitro [9])?
Answer: The viability at 11.5 µM was 93 ± 9.4%.

Question: What about the viability at 3.1 µM (fibroblasts; [11]) of the same compound?
Answer: The viability at 3.1 µM was 101%.

Question: What about the viability at 3.1 µM (fibroblasts; [12]) of the same compound?
Answer: The viability at 3.1 µM was 100%.

Question: And the viability at 3.1 µM (fibroblasts; 1.1 μM/L rhamnose, *** p < 0.001)?
Answer: The viability at 3.1 µM was 87%.

Question: What about the viability at 3.1 µM (fibroblasts; no carbohydrate) of the same compound?
Answer: The viability at 3.1 µM was 58 ± 9.6%.

Question: What about the “morphological effect on ovarian cancer cells” value (ovarian cancer cells [10]) of the same compound?
Answer: Its value is “absence of cancer cells upon cytological examination”.

Question: What about the viability at 2.4 µM (HeLa cells; 1.1 μM/L galactose) of the same compound?
Answer: Its viability at 2.4 µM is 24 ± 2.2%.

Question: And the viability at 2.4 µM (HeLa cells; 1.1 μM/L lactose)?
Answer: The viability at 2.4 µM was 24 ± 2.9%.

Question: And the viability at 2.4 µM (HeLa cells; 1.1 μM/L rhamnose)?
Answer: Its viability at 2.4 µM is 26 ± 2.1%.

Question: And the viability at 2.4 µM (HeLa cells; no carbohydrate (first line))?
Answer: The viability at 2.4 µM was 25 ± 2.6%.

Question: What about the viability at 2.4 µM (HeLa cells; no carbohydrate (second line, with rhamnose)) of the same compound?
Answer: The viability at 2.4 µM was 24 ± 4%.
